In PubChem BioAssay (NCI):
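Results reflect a 48-hour exposure of cells in 96-well plates to compound at five concentrations. TGI is the concentration that stops growth completely.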

Tests used:
Experiment in all cases: NCI anticancer screen, dose series, 48 h
786-0 renal = system: 786-0 renal
A498 renal = system: A498 renal
A549 NSCLC = system: A549 NSCLC
ACHN renal = system: ACHN renal
BT-549 breast = system: BT-549 breast
CAKI-1 renal = system: CAKI-1 renal
CCRF-CEM leukemia = system: CCRF-CEM leukemia
COLO 205 colon = system: COLO 205 colon
DU-145 prostate = system: DU-145 prostate
EKVX NSCLC = system: EKVX NSCLC
HCT-116 colon = system: HCT-116 colon
HCT-15 colon = system: HCT-15 colon
HL-60(TB) leukemia = system: HL-60(TB) leukemia
HOP-62 NSCLC = system: HOP-62 NSCLC
HOP-92 NSCLC = system: HOP-92 NSCLC
HS 578T breast = system: HS 578T breast
HT29 colon = system: HT29 colon
IGROV1 ovarian = system: IGROV1 ovarian
K-562 leukemia = system: K-562 leukemia
KM12 colon = system: KM12 colon
LOX IMVI melanoma = system: LOX IMVI melanoma
M14 melanoma = system: M14 melanoma
MALME-3M melanoma = system: MALME-3M melanoma
MCF7 breast = system: MCF7 breast
MDA-MB-231 breast = system: MDA-MB-231 breast
MDA-MB-435 = system: MDA-MB-435
MDA-N = system: MDA-N
MOLT-4 leukemia = system: MOLT-4 leukemia
NCI-H226 lung = system: NCI-H226 lung
NCI-H23 lung = system: NCI-H23 lung
NCI-H460 lung = system: NCI-H460 lung
NCI-H522 lung = system: NCI-H522 lung
NCI/ADR-RES ovarian = system: NCI/ADR-RES ovarian
OVCAR-3 ovarian = system: OVCAR-3 ovarian
OVCAR-4 ovarian = system: OVCAR-4 ovarian
OVCAR-5 ovarian = system: OVCAR-5 ovarian
OVCAR-8 ovarian = system: OVCAR-8 ovarian
PC-3 prostate = system: PC-3 prostate
RPMI-8226 leukemia = system: RPMI-8226 leukemia
RXF 393 renal = system: RXF 393 renal
SF-268 CNS = system: SF-268 CNS
SF-295 CNS = system: SF-295 CNS
SF-539 CNS = system: SF-539 CNS
SK-MEL-2 melanoma = system: SK-MEL-2 melanoma
SK-MEL-28 melanoma = system: SK-MEL-28 melanoma
SK-MEL-5 melanoma = system: SK-MEL-5 melanoma
SK-OV-3 ovarian = system: SK-OV-3 ovarian
SN12C renal = system: SN12C renal
SNB-19 CNS = system: SNB-19 CNS
SNB-75 CNS = system: SNB-75 CNS
SW-620 colon = system: SW-620 colon
T-47D breast = system: T-47D breast
TK-10 renal = system: TK-10 renal
U251 CNS = system: U251 CNS
UACC-62 melanoma = system: UACC-62 melanoma
UO-31 renal = system: UO-31 renal
SR leukemia = system: SR leukemia
UACC-257 melanoma = system: UACC-257 melanoma
HCC-2998 colon = system: HCC-2998 colon

COC(=O)Nc1nc2ccc(NS(=O)(=O)c3ccc(F)cc3)cc2[nH]1
TGI (786-0 renal): > 100 µM | TGI (A498 renal): > 100 µM | TGI (A549 NSCLC): > 100 µM | TGI (ACHN renal): > 100 µM | TGI (BT-549 breast): > 100 µM | TGI (CAKI-1 renal): > 100 µM | TGI (CCRF-CEM leukemia): > 100 µM | TGI (COLO 205 colon): 37.8 µM | TGI (DU-145 prostate): > 100 µM | TGI (EKVX NSCLC): > 100 µM | TGI (HCT-116 colon): > 100 µM | TGI (HCT-15 colon): > 100 µM | TGI (HL-60(TB) leukemia): 8.45 µM | TGI (HOP-62 NSCLC): > 100 µM | TGI (HOP-92 NSCLC): > 100 µM | TGI (HS 578T breast): 9.66 µM | TGI (HT29 colon): 37.4 µM | TGI (IGROV1 ovarian): 9.93 µM | TGI (K-562 leukemia): > 100 µM | TGI (KM12 colon): 74.7 µM | TGI (LOX IMVI melanoma): > 100 µM | TGI (M14 melanoma): > 100 µM | TGI (MALME-3M melanoma): > 100 µM | TGI (MCF7 breast): > 100 µM | TGI (MDA-MB-231 breast): > 100 µM | TGI (MDA-MB-435): 11.2 µM | TGI (MDA-N): 7.45 µM | TGI (MOLT-4 leukemia): 36.5 µM | TGI (NCI-H226 lung): > 100 µM | TGI (NCI-H23 lung): > 100 µM | TGI (NCI-H460 lung): > 100 µM | TGI (NCI-H522 lung): 7.68 µM | TGI (NCI/ADR-RES ovarian): 54.2 µM | TGI (OVCAR-3 ovarian): 16.2 µM | TGI (OVCAR-4 ovarian): > 100 µM | TGI (OVCAR-5 ovarian): > 100 µM | TGI (OVCAR-8 ovarian): > 100 µM | TGI (PC-3 prostate): > 100 µM | TGI (RPMI-8226 leukemia): 81.2 µM | TGI (RXF 393 renal): 78.6 µM | TGI (SF-268 CNS): > 100 µM | TGI (SF-295 CNS): 70.4 µM | TGI (SF-539 CNS): 52.9 µM | TGI (SK-MEL-2 melanoma): > 100 µM | TGI (SK-MEL-28 melanoma): > 100 µM | TGI (SK-MEL-5 melanoma): > 100 µM | TGI (SK-OV-3 ovarian): > 100 µM | TGI (SN12C renal): > 100 µM | TGI (SNB-19 CNS): > 100 µM | TGI (SNB-75 CNS): 70.1 µM | TGI (SW-620 colon): > 100 µM | TGI (T-47D breast): > 100 µM | TGI (TK-10 renal): 87 µM | TGI (U251 CNS): > 100 µM | TGI (UACC-62 melanoma): > 100 µM | TGI (UO-31 renal): > 100 µM

O=C(O)CCc1nc(-c2ccccc2)c(-c2ccccc2)o1
TGI (786-0 renal): > 100 µM | TGI (A498 renal): > 100 µM | TGI (A549 NSCLC): > 100 µM | TGI (ACHN renal): > 100 µM | TGI (BT-549 breast): > 100 µM | TGI (CAKI-1 renal): > 100 µM | TGI (CCRF-CEM leukemia): > 100 µM | TGI (COLO 205 colon): > 100 µM | TGI (DU-145 prostate): > 100 µM | TGI (EKVX NSCLC): > 100 µM | TGI (HCT-116 colon): > 100 µM | TGI (HCT-15 colon): > 100 µM | TGI (HL-60(TB) leukemia): > 100 µM | TGI (HOP-62 NSCLC): > 100 µM | TGI (HOP-92 NSCLC): > 100 µM | TGI (HS 578T breast): > 100 µM | TGI (HT29 colon): > 100 µM | TGI (IGROV1 ovarian): > 100 µM | TGI (K-562 leukemia): > 100 µM | TGI (KM12 colon): > 100 µM | TGI (LOX IMVI melanoma): > 100 µM | TGI (M14 melanoma): > 100 µM | TGI (MALME-3M melanoma): > 100 µM | TGI (MCF7 breast): > 100 µM | TGI (MDA-MB-231 breast): > 100 µM | TGI (MDA-MB-435): > 100 µM | TGI (MDA-N): > 100 µM | TGI (MOLT-4 leukemia): > 100 µM | TGI (NCI-H226 lung): > 100 µM | TGI (NCI-H23 lung): > 100 µM | TGI (NCI-H460 lung): > 100 µM | TGI (NCI-H522 lung): > 100 µM | TGI (NCI/ADR-RES ovarian): > 100 µM | TGI (OVCAR-3 ovarian): > 100 µM | TGI (OVCAR-4 ovarian): > 100 µM | TGI (OVCAR-5 ovarian): > 100 µM | TGI (OVCAR-8 ovarian): > 100 µM | TGI (PC-3 prostate): > 100 µM | TGI (RPMI-8226 leukemia): > 100 µM | TGI (RXF 393 renal): > 100 µM | TGI (SF-295 CNS): > 100 µM | TGI (SF-539 CNS): > 100 µM | TGI (SK-MEL-2 melanoma): > 100 µM | TGI (SK-MEL-28 melanoma): > 100 µM | TGI (SK-MEL-5 melanoma): > 100 µM | TGI (SK-OV-3 ovarian): > 100 µM | TGI (SN12C renal): > 100 µM | TGI (SNB-19 CNS): > 100 µM | TGI (SNB-75 CNS): > 100 µM | TGI (SR leukemia): > 100 µM | TGI (SW-620 colon): > 100 µM | TGI (T-47D breast): > 100 µM | TGI (TK-10 renal): > 100 µM | TGI (U251 CNS): > 100 µM | TGI (UACC-257 melanoma): > 100 µM | TGI (UACC-62 melanoma): > 100 µM

CN(C)Cc1cc(C(=O)/C=C/c2c(F)cccc2Cl)cc(CN(C)C)c1O
TGI (786-0 renal): 19.5 µM | TGI (A498 renal): 21 µM | TGI (A549 NSCLC): 32.5 µM | TGI (ACHN renal): 15.4 µM | TGI (BT-549 breast): 21.8 µM | TGI (CAKI-1 renal): 25.3 µM | TGI (CCRF-CEM leukemia): 24.1 µM | TGI (COLO 205 colon): 24.8 µM | TGI (DU-145 prostate): 21.3 µM | TGI (EKVX NSCLC): 28.7 µM | TGI (HCC-2998 colon): 27 µM | TGI (HCT-116 colon): 16.2 µM | TGI (HCT-15 colon): 19.1 µM | TGI (HL-60(TB) leukemia): 8.49 µM | TGI (HOP-62 NSCLC): 26.7 µM | TGI (HOP-92 NSCLC): 20.3 µM | TGI (HS 578T breast): 50.2 µM | TGI (HT29 colon): 23.7 µM | TGI (IGROV1 ovarian): 19 µM | TGI (K-562 leukemia): 26.8 µM | TGI (KM12 colon): 30.4 µM | TGI (LOX IMVI melanoma): 18.5 µM | TGI (M14 melanoma): 30 µM | TGI (MALME-3M melanoma): 25.7 µM | TGI (MCF7 breast): 20.2 µM | TGI (MDA-MB-231 breast): 27.5 µM | TGI (MDA-MB-435): 38.2 µM | TGI (MDA-N): 29.1 µM | TGI (MOLT-4 leukemia): 66.1 µM | TGI (NCI-H226 lung): 30.8 µM | TGI (NCI-H23 lung): 38.3 µM | TGI (NCI-H460 lung): 11.8 µM | TGI (NCI/ADR-RES ovarian): 75.7 µM | TGI (OVCAR-3 ovarian): 24.6 µM | TGI (OVCAR-4 ovarian): 31 µM | TGI (OVCAR-5 ovarian): 36.2 µM | TGI (OVCAR-8 ovarian): 41.2 µM | TGI (PC-3 prostate): 29.5 µM | TGI (RPMI-8226 leukemia): 49.6 µM | TGI (RXF 393 renal): 12.6 µM | TGI (SF-268 CNS): 23.5 µM | TGI (SF-295 CNS): 25.4 µM | TGI (SK-MEL-2 melanoma): 35.5 µM | TGI (SK-MEL-28 melanoma): 31.9 µM | TGI (SK-MEL-5 melanoma): 29.2 µM | TGI (SK-OV-3 ovarian): 28.3 µM | TGI (SN12C renal): 17.2 µM | TGI (SNB-19 CNS): 61.5 µM | TGI (SNB-75 CNS): 21.8 µM | TGI (SW-620 colon): 31.3 µM | TGI (T-47D breast): 33.4 µM | TGI (TK-10 renal): 15.7 µM | TGI (U251 CNS): 28.9 µM | TGI (UACC-257 melanoma): 24.6 µM | TGI (UACC-62 melanoma): 26.1 µM | TGI (UO-31 renal): 18.7 µM
